Test results as given in the supplement of paper PMC10307832.

Legend:
Experiment in all cases: relative viability (nuclei count vs DMSO), 5 days (fraction); higher = more cells survive
Fedratinib + Decitabine = compound: Cc1cnc(Nc2ccc(OCCN3CCCC3)cc2)nc1Nc1cccc(S(=O)(=O)NC(C)(C)C)c1 [Fedratinib] + Nc1ncn([C@H]2C[C@H](O)[C@@H](CO)O2)c(=O)n1 [Decitabine] (partner 2 µM)
Summary of the method: (§1)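 Nuclei were stained with Hoechst during a one-step fixation (final 0.05% Triton X-100, 1% formaldehyde, 1 ug/ml Hoechst) carried out 5 days after dosing, then counted on 4× images. The cells, lung cancer lines in 1536-well plates, had been dosed by pin tool the day after seeding with one drug alone or a fixed anchor-drug dose plus five library-drug doses (not always all listed) in √10 steps. Relative viability is the nuclei count in treated wells divided by that in vehicle wells, and each value is the median of duplicate plates.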

Fedratinib + Crizotinib = compound: Cc1cnc(Nc2ccc(OCCN3CCCC3)cc2)nc1Nc1cccc(S(=O)(=O)NC(C)(C)C)c1 [Fedratinib] + C[C@@H](Oc1cc(-c2cnn(C3CCNCC3)c2)cnc1N)c1c(Cl)ccc(F)c1Cl [Crizotinib] (partner 1 µM)
Summary of the method: as §1

GW-2580 + AZD7762 = compound: COC1=CC=C(C=C1)COC2=C(C=C(C=C2)CC3=CN=C(N=C3N)N)OC [GW-2580] + NC(=O)Nc1cc(-c2cccc(F)c2)sc1C(=O)N[C@H]1CCCNC1 [AZD7762] (partner 0.2 µM)
Summary of the method: as §1

GW-2580 + Palbociclib = compound: COC1=CC=C(C=C1)COC2=C(C=C(C=C2)CC3=CN=C(N=C3N)N)OC [GW-2580] + CC(=O)c1c(C)c2cnc(Nc3ccc(N4CCNCC4)cn3)nc2n(C2CCCC2)c1=O [Palbociclib] (partner 0.5 µM)
Summary of the method: as §1

GW-2580 + Bortezomib = compound: COC1=CC=C(C=C1)COC2=C(C=C(C=C2)CC3=CN=C(N=C3N)N)OC [GW-2580] + CC(C)C[C@H](NC(=O)[C@H](Cc1ccccc1)NC(=O)c1cnccn1)B(O)O [Bortezomib] (partner 0.002 µM)
Summary of the method: as §1

Row | Cell Line | relative viability (Fedratinib + Decitabine; first compound 0.1 µM) | relative viability (Fedratinib + Decitabine; first compound 0.3162 µM) | relative viability (Fedratinib + Decitabine; first compound 1 µM) | relative viability (Fedratinib + Crizotinib; first compound 0.1 µM) | relative viability (Fedratinib + Crizotinib; first compound 0.3162 µM) | relative viability (Fedratinib + Crizotinib; first compound 1 µM) | relative viability (GW-2580 + AZD7762; first compound 0.08 µM) | relative viability (GW-2580 + AZD7762; first compound 0.8 µM) | relative viability (GW-2580 + AZD7762; first compound 2.53 µM) | relative viability (GW-2580 + AZD7762; first compound 8 µM) | relative viability (GW-2580 + Palbociclib; first compound 0.08 µM) | relative viability (GW-2580 + Palbociclib; first compound 0.8 µM) | relative viability (GW-2580 + Palbociclib; first compound 2.53 µM) | relative viability (GW-2580 + Palbociclib; first compound 8 µM) | relative viability (GW-2580 + Bortezomib; first compound 0.08 µM) | relative viability (GW-2580 + Bortezomib; first compound 0.8 µM) | relative viability (GW-2580 + Bortezomib; first compound 2.53 µM) | relative viability (GW-2580 + Bortezomib; first compound 8 µM)
1 | LU99A | 0.936 | 0.968 | 0.892 | 0.427 | 0.618 | 0.509 | 0.509 | 0.315 | 0.267 | 0.281 | 0.476 | 0.444 | 0.356 | 0.376 | 1.1 | 1.15 | 0.986 | 1.17
2 | ABC-1 | 0.976 | 1.09 | 1.01 | 0.566 | 1.1 | 0.769 | 0.836 | 0.941 | 0.717 | 0.829 | 0.74 | 0.768 | 0.503 | 0.696 | 0.295 | 0.324 | 0.287 | 0.306
3 | NCI-H2170 | 0.478 | 0.466 | 0.443 | 1.12 | 1.07 | 0.871 | 0.982 | 0.864 | 0.723 | 0.837 | 0.408 | 0.451 | 0.386 | 0.373 | – | – | – | –
4 | NCI-H1299 | – | – | – | 0.884 | 0.946 | 0.94 | – | – | – | – | – | – | – | – | 1.02 | 0.949 | 1.07 | 0.941
5 | EBC-1 | – | – | – | 0.184 | 0.213 | 0.185 | – | – | – | – | – | – | – | – | 0.609 | 0.572 | 0.492 | 0.554
6 | NCI-H2347 | 0.637 | 0.631 | 0.647 | 0.721 | 0.667 | 0.679 | 0.852 | 0.855 | 0.636 | 0.776 | 0.382 | 0.453 | 0.451 | 0.426 | 1.01 | 1.23 | 0.842 | 1.26
7 | NCI-H1648 | 0.473 | 0.51 | 0.443 | – | – | – | 0.713 | – | 0.778 | 0.583 | 0.293 | – | 0.274 | 0.239 | – | – | – | –
8 | COR-L23 | 0.4 | 0.416 | 0.177 | 0.55 | 0.526 | 0.486 | – | – | – | – | 0.264 | 0.328 | 0.302 | 0.288 | 1.2 | 1.21 | 0.929 | 1.2
9 | COR-L 105 | 0.669 | 0.611 | 0.511 | 0.539 | 0.686 | 0.391 | – | – | – | – | 0.434 | 0.398 | 0.413 | 0.39 | 0.829 | 0.99 | 0.67 | 0.797
10 | LK-2 | 0.275 | 0.269 | 0.352 | – | 0.187 | 0.214 | 0.44 | 0.681 | 0.269 | 0.284 | 0.877 | 0.853 | 0.426 | 0.614 | – | – | – | –
11 | NCI-H596 | 0.937 | 1.01 | 0.975 | 0.983 | 1.01 | 0.973 | 1.1 | 1.18 | 1.19 | 1.14 | – | – | – | – | 0.938 | 1.06 | 1.23 | 1.01
12 | NCI-H2023 | 0.21 | 0.23 | 0.117 | 0.585 | 0.715 | 0.58 | – | – | – | – | 0.398 | 0.477 | 0.368 | 0.31 | 1.01 | 1.14 | 0.733 | 0.904
13 | NCI-H1944 | 0.435 | 0.451 | 0.421 | 1.12 | 1.09 | 1.04 | 0.572 | 0.498 | 0.485 | 0.452 | 0.33 | 0.387 | 0.29 | 0.255 | – | – | – | –
14 | NCI-H1793 | 0.501 | 0.526 | 0.406 | – | – | – | 0.587 | 0.382 | 0.266 | 0.323 | 0.412 | 0.345 | 0.28 | 0.273 | – | – | – | –
15 | NCI-H520 | 0.557 | 0.454 | 0.532 | 0.716 | 0.703 | 0.594 | – | – | – | – | 0.228 | 0.206 | 0.228 | 0.208 | 0.58 | 0.923 | 0.602 | 0.672
16 | A549 | 0.121 | 0.302 | 0.257 | 0.638 | 0.609 | 0.687 | – | – | – | – | – | – | – | – | – | – | – | –
17 | NCI-H358 | 0.156 | 0.21 | 0.101 | 0.427 | 0.608 | 0.374 | 0.588 | 0.604 | 0.516 | 0.363 | 0.135 | 0.147 | 0.139 | 0.15 | – | – | – | –
18 | NCI-H1563 | – | – | – | 0.898 | 0.893 | 0.842 | – | – | – | – | – | – | – | – | 0.8 | 0.986 | 0.764 | 0.842
19 | NCI-H1395 | 0.628 | 0.738 | 0.622 | – | – | – | 0.421 | 0.377 | 0.422 | 0.416 | 0.594 | 0.603 | 0.57 | 0.613 | – | – | – | –
20 | NCI-H2009 | 0.368 | 0.406 | 0.356 | 1.04 | 0.977 | 0.884 | – | – | – | – | 0.193 | 0.179 | 0.212 | 0.248 | 1.02 | 0.955 | 0.931 | 0.844
21 | NCI-H522 | 0.634 | 0.698 | 0.668 | – | – | – | 0.903 | 0.806 | 0.873 | 0.872 | 1.04 | 1.06 | 0.825 | 1.04 | – | – | – | –
22 | IA-LM | – | – | – | 0.805 | 0.589 | 0.736 | – | – | – | – | – | – | – | – | 0.967 | 0.574 | 0.912 | 0.865
23 | SK-LU-1 | 0.614 | 0.599 | 0.615 | – | 0.836 | 0.584 | – | – | – | – | 0.414 | 0.459 | 0.29 | 0.373 | 0.902 | 1.42 | 0.73 | 1.54
24 | NCI-H1703 | – | – | – | 0.629 | 0.51 | 0.533 | 0.115 | 0.128 | 0.122 | 0.108 | – | – | – | – | 0.307 | 0.351 | 0.532 | 0.335
25 | SW 900 | 0.399 | 0.425 | 0.516 | – | – | – | 0.68 | 0.616 | 0.574 | 0.557 | 0.593 | 0.562 | 0.593 | 0.567 | – | – | – | –
